For four molecules, MIC results are on record in DBAASP.

Common to all, as to assay: ≥ marks a high value that may be exact or a test limit, other limits are often not marked, values filed in µg/mL are converted to µM
The test system of assay [1] is Escherichia coli ATCC 25922.
The subject of assay [2] is Listeria monocytogenes KCTC 19111.
The test system of assay [3] is Pseudomonas aeruginosa ATCC 15692.
The subject of assay [4] is Salmonella typhimurium KCTC 1926.
The test system of assay [5] is Staphylococcus aureus ATCC 25923.
Assay [6] relates to Staphylococcus epidermidis KCTC 1917.
The subject of assay [7] is Acinetobacter baumannii MTCC 9829.
Assay [8] relates to Alcaligenes faecalis MTCC 1937.
Assay [9] deals with Alkalihalobacillus alcalophilus MTCC 860.
Assay [10] concerns Bordetella bronchiseptica MTCC 6837.
Assay [11] concerns Citrobacter freundii MTCC 1658.
The test system of assay [12] is Citrobacter koseri MTCC 1657.
Assay [13] relates to Corynebacterium glutamicum MTCC 2679.
The subject of assay [14] is Enterococcus faecalis MTCC 439.
For assay [15], the system named is Escherichia coli K12 MG1655.
In assay [16] the test system is Haemophilus influenzae MTCC 621.
Assay [17] concerns Klebsiella aerogenes MTCC 111.
Assay [18] deals with Klebsiella oxytoca MTCC 2275.
The test system of assay [19] is Klebsiella pneumoniae MTCC 7407.
For assay [20], the system named is Pluralibacter gergoviae MTCC 3826.
For assay [21], the system named is Proteus mirabilis MTCC 3158.
In assay [22] the test system is Proteus vulgaris MTCC 1771.
Assay [23] relates to Pseudomonas aeruginosa MTCC 3542.
Assay [24] relates to Salmonella enterica MTCC 9844.
In assay [25] the test system is Salmonella enterica subsp. enterica serovar Typhimurium ATCC 14028.
Assay [26] concerns Shigella boydii MTCC 11947.
For assay [27], the system named is Shigella flexneri MTCC 1457.
The subject of assay [28] is Staphylococcus aureus MTCC 3160.
Assay [29] concerns Staphylococcus haemolyticus MTCC 3383.
Assay [30] has as its system Stenotrophomonas maltophilia MTCC 1890.
Assay [31] relates to Vibrio cholerae MTCC 3904.
Assay [32] relates to Escherichia coli BW25113.
Assay [33] has as its system Escherichia coli J2210.
Assay [34] concerns Escherichia coli JJ2489.
Assay [35] relates to Escherichia coli JW0013.
In assay [36] the test system is Escherichia coli JW0368 ΔsbmA.
Assay [37] has as its system Escherichia coli JW2778 ΔygdD.
Assay [38] relates to Escherichia coli MC1041.
The subject of assay [39] is Escherichia coli.
Assay [40] deals with Salmonella enterica serovar Tennessee.
For assay [41], the system named is Salmonella enterica subsp. enterica serovar Enteritidis MH91989.
The subject of assay [42] is Salmonella enterica subsp. enterica serovar Infantis.
For assay [43], the system named is Salmonella enterica subsp. enterica serovar Newport.
Assay [44] has as its system Salmonella typhimurium SL1344.
The test system of assay [45] is Escherichia coli JJ2487.
Assay [46] relates to Escherichia coli MC1061.
Assay [47] has as its system Escherichia coli O157:H7.
The subject of assay [48] is Escherichia coli UB1005.
In assay [49] the test system is Pseudomonas aeruginosa PAO1.

Converted amounts (≈) assume the structure as drawn. “And” between values parts separate entries of the source, which are not always exact repeats. Identical values can stand only once.

With `NCCCC[C@H](NC(=O)[C@H](Cc1ccc(O)cc1)NC(=O)[C@H](Cc1c[nH]c2ccccc12)NC(=O)[C@H](CCCCN)NC(=O)[C@H](CCCCN)NC(=O)[C@H](Cc1ccc(O)cc1)NC(=O)[C@H](Cc1c[nH]c2ccccc12)NC(=O)[C@@H](N)CCCCN)C(N)=O` [KWYKKWYK], the MIC in assay [1] was determined as 4 µM (≈ 4.91 µg/mL); in assay [2], 8 µM (≈ 9.83 µg/mL); in [3] it was 8 µM (≈ 9.83 µg/mL); in [4], 8 µM (≈ 9.83 µg/mL); in [5] it was 64 µM (≈ 78.6 µg/mL); in [6], 8 µM (≈ 9.83 µg/mL).
In the case of `CSCC[C@H](NC(=O)[C@H](CCCN=C(N)N)NC(=O)[C@H](Cc1cnc[nH]1)NC(=O)[C@H](Cc1c[nH]c2ccccc12)NC(=O)[C@H](CCCN=C(N)N)NC(=O)CNC(=O)[C@H](Cc1c[nH]c2ccccc12)NC(=O)[C@H](CCCN=C(N)N)NC(=O)[C@@H](N)CCCN=C(N)N)C(=O)N[C@@H](CCCN=C(N)N)C(=O)N[C@@H](CCCN=C(N)N)C(=O)N[C@@H](CCCN=C(N)N)C(=O)NCC(=O)N[C@@H](CCCN=C(N)N)C(=O)O` [RRWGRWHRMRRRGR], the MIC in [7] was no less than 63.3 µM; in assay [8], no less than 63.3 µM; in assay [9], 15.8 µM (≈ 32 µg/mL); in assay [10], no less than 63.3 µM; in [11], no less than 63.3 µM; in assay [12], 7.91 µM (≈ 16 µg/mL). For the same molecule, the MIC in [13] is 1.98 µM (≈ 4 µg/mL); in assay [14] it was no less than 63.3 µM; in [15] it was no less than 63.3 µM; in assay [16] it was no less than 63.3 µM; in [17] it was no less than 63.3 µM; in [18], 31.6 µM (≈ 64 µg/mL). The MIC in assay [19], in assay [20], in [21], in [22], in assay [23] and in assay [24] was no less than 63.3 µM in each case. For the same molecule, the MIC was greater than 63.3 µM in assay [25]; 31.6 µM (≈ 64 µg/mL) in assay [26]; 31.6 µM (≈ 64 µg/mL) in [27]; no less than 63.3 µM in assay [28]; 1.98 µM (≈ 4 µg/mL) in [29]; no less than 63.3 µM in assay [30]. The MIC in assay [31] is no less than 63.3 µM.
As for `CC[C@H](C)[C@H](NC(=O)[C@@H]1CCCN1C(=O)[C@H](CCCCN)NC(=O)[C@@H]1CCCN1C(=O)[C@@H]1CCCN1C(=O)[C@@H](NC(=O)[C@@H]1CCCN1C(=O)[C@H](CCCN=C(N)N)NC(=O)[C@@H]1CCCN1C(=O)[C@H](CCCCN)NC(=O)[C@H](Cc1ccc(O)cc1)NC(=O)[C@H](CO)NC(=O)CNC(=O)[C@H](CCCCN)NC(=O)[C@H](CC(=O)O)NC(=O)[C@@H](N)C(C)C)[C@@H](C)O)C(=O)N[C@@H](Cc1ccc(O)cc1)C(=O)N[C@@H](CC(N)=O)C(=O)N[C@@H](CCCN=C(N)N)C(=O)N[C@@H](CC(N)=O)C(=O)O` [VDKGSYKPRPTPPKPIYNRN], the MIC in assay [32] is 0.075 µM (≈ 0.175 µg/mL); in [33], 0.208 µM (≈ 0.484 µg/mL); in [34], 0.104 µM (≈ 0.242 µg/mL); in assay [35] it was 0.075 µM (≈ 0.175 µg/mL); in [36], 0.834 µM (≈ 1.94 µg/mL); in assay [37] it was 0.208 µM (≈ 0.484 µg/mL). Moreover, the MIC in assay [38] was 0.15 µM (≈ 0.349 µg/mL); in assay [39], 0.197 µM and 0.3 µM; in assay [40], 0.3 µM (≈ 0.698 µg/mL); in assay [41], 0.6 µM (≈ 1.4 µg/mL); in assay [42], 0.3 µM (≈ 0.698 µg/mL); in [43], 0.075 µM (≈ 0.175 µg/mL). Also, the MIC in assay [44] is 0.15 µM (≈ 0.349 µg/mL).
In the case of `CC[C@H](C)[C@H](NC(=O)[C@H](CCCN=C(N)N)NC(=O)[C@H](CCCN=C(N)N)NC(=O)[C@@H]1CCCN1C(=O)[C@@H]1CCCN1C(=O)[C@H](CCCN=C(N)N)NC(=O)[C@@H]1CCCN1C(=O)[C@H](CCCN=C(N)N)NC(=O)[C@@H]1CCCN1C(=O)[C@H](CC(C)C)NC(=O)[C@H](Cc1ccc(O)cc1)NC(=O)[C@@H]1CCCN1C(=O)[C@H](CCCCN)NC(=O)[C@H](CCCCN)NC(=O)[C@H](CC(=O)O)NC(=O)[C@@H](N)C(C)C)C(=O)N[C@@H](Cc1ccc(O)cc1)C(=O)N[C@@H](CC(N)=O)C(=O)N[C@@H](CCCN=C(N)N)C(N)=O` [VDKKPYLPRPRPPRRIYNR], the MIC in [33] came to 0.161 µM (≈ 0.39 µg/mL); in [45], 0.248 µM (≈ 0.6 µg/mL); in assay [35], 0.248 µM (≈ 0.6 µg/mL); in [46], 0.124 µM (≈ 0.3 µg/mL); in [47], 0.991 µM (≈ 2.4 µg/mL); in assay [48] it was 1.03 µM (≈ 2.5 µg/mL). Further, the MIC in assay [49] turned out to be 13.2 µM (≈ 32 µg/mL); in assay [41], 0.248 µM (≈ 0.6 µg/mL); in [44], 0.248 µM (≈ 0.6 µg/mL); in [5], 9.34 µM (≈ 22.6 µg/mL).
